Experimental findings from patent US20200354348A1, “SEMISYNTHETIC AURONES AND METHODS OF USE THEREOF” (University of Kentucky Research Foundation, priority 2018, published 2020) are described below.

Series [1] has as its system LS174T cells. The series can be described thus: Proliferation inhibition assay, LS174T. In kind it is cell-based. The note with it: for inhibition at 1 µM / inhibition at 10 µM / inhibition at 0.3 µM: Homo sapiens, LS174T; for inhibition at 0.3 µM: 300 nM. How it is done:
(§1) Cell Culture. LS174T (colon cancer cells), PC-3 (prostate cancer cells), MCF-7 (beast) and A549 (lung) were cultured in the medium recommended by American Type Culture Collection at 37° C. with 5% CO2 atmosphere in a water jacketed incubator. Ovcar-8 and NCI/ADR-RES are gifts from Dr. Markos Leggas. Alpha-tubulin antibodies, TRITC-conjugated anti-rabbit antibody.
(§2) Proliferation inhibition assay. Cancer cells were seeded into 24-well plates at a density of 20,000 cells per well in 1 mL of culture medium and cultured overnight at 37° C. Compounds and the vehicle control DMSO were added to the cells. After 6 days, medium was removed and 100 μL of trypsin was added. Then the cells resuspended in pbs were counted by Vi-CELL XR 2.03 (Beckman Coulter, Inc. USA). The ratio R of the number of viable cells in the compound treatment group to the number of viable cells in DMSO treatment group was taken as relative growth, and the percentage growth inhibition was calculated as: (1−R)*100. For initial testing, compounds were added to the cells at a final concentration 10 μM. Active compounds at 10 μM would be tested at lower concentrations.

In series [2] the test system is PC-3 cells. The series can be described thus: Proliferation inhibition assay, PC-3. In kind it is cell-based. How it is done:
as §1, §2

The mark [3] stands for this setting: Homo sapiens, PC-3, 1 μM, Table 1.
The mark [4] stands for this setting: Homo sapiens, PC-3, 10 μM, Table 1.
Setting [5] is: Homo sapiens, PC-3, 10 μM, Table 2.
[6] abbreviates: Homo sapiens, PC-3, 1 μM, Table 2.
Where [7] appears, read: Homo sapiens, PC-3, 300 nM, Table 2.

Counter-ions that a name gives are not always drawn.

Regarding `CN1CCN(c2ccc(/C=C3\Oc4cc(O)ccc4C3=O)cc2)CC1` (as salt: hydrochloride), the melting point (commonly the temperature, or range, at which the solid turns liquid) is > 220 °C.

Turning to `O=C1/C(=C/c2ccc(N3CCCC3)cc2)Oc2cc(O)ccc21` [Aurone 2a, (2Z)-6-Hydroxy-2-(4-pyrrolidin-1-ylbenzylidene)-1-benzofuran-3(2H)-one], the melting point was > 220 °C.

On to `O=C1/C(=C/c2ccc(N3CCCC3)cc2)Oc2cc(O)ccc21` [Aurone 2a], for which the inhibition (in general, the change of the read-out against control, counted positive when it falls) at 1 µM in series [1] (1 μM, Table 1) is 0%; in series [2] (setting [3]) it was 2.1 ± 7.1%. The inhibition at 10 µM turned out to be 23 ± 2.9% in series [1] (10 μM, Table 1) and 95 ± 4.7% in series [2] (setting [4]).

For the molecule `O=C1/C(=C/c2ccc(N3CCOCC3)cc2)Oc2cc(O)ccc21` [Aurone 2b, (2Z)-6-Hydroxy-2-(4-morpholin-4-ylbenzylidene)-1-benzofuran-3(2H)-one], the melting point was > 220 °C.

In the case of `O=C1/C(=C/c2ccc(N3CCOCC3)cc2)Oc2cc(O)ccc21` [Aurone 2b], the inhibition at 10 µM in series [1] (10 μM, Table 1) stood at 0%; in series [2] (setting [4]) it was 7.8 ± 7.7%.

With `O=C1/C(=C/c2ccc(N3CCSCC3)cc2)Oc2cc(O)ccc21` [Aurone 2d, (2Z)-6-Hydroxy-2-[(4-thiomorpholin-4-ylbenzylidene)]-1-benzofuran-3(2H)-one], the melting point was > 220 °C.

With `CN(C)c1ccc(/C=C2\Oc3cc(O)ccc3C2=O)c(Cl)c1` [Aurone 2e, (2Z)-2-[2-Chloro-4-(dimethylamino)benzylidene]-6-hydroxy-1-benzofuran-3(2H)-one], the melting point was > 220 °C.

Consider `CCN(CC)c1ccc(/C=C2\Oc3cc(O)ccc3C2=O)c(OC)c1` [Aurone 2f, (2Z)-2-[4-(Diethylamino)-2-methoxybenzylidene]-6-hydroxy-1-benzofuran-3(2H)-one], for which the melting point is > 220 °C.

In turn, `O=C1/C(=C/c2ccccn2)Oc2cc(O)ccc21` [Aurone 3a, (2Z)-6-Hydroxy-2-(pyridin-2-ylmethylene)-1-benzofuran-3(2H)-one] registered a melting point of 246 to 248 °C.

With `O=C1/C(=C/c2ccccn2)Oc2cc(O)ccc21` [Aurone 3a], the inhibition at 10 µM in series [1] (10 μM, Table 1) worked out at 0%; in series [2] (setting [4]), 8.8 ± 15%.

The molecule `O=C1/C(=C/c2cccnc2)Oc2cc(O)ccc21` [Aurone 3b, (2Z)-6-Hydroxy-2-(pyridin-3-ylmethylene)-1-benzofuran-3(2H)-one] came in with a melting point of 255 to 257 °C.

Consider `O=C1/C(=C/c2cccnc2)Oc2cc(O)ccc21` [Aurone 3b], for which the inhibition at 10 µM came out at 11 ± 3.6% in series [1] (10 μM, Table 1) and 0% in series [2] (setting [4]).

With `O=C1/C(=C/c2nccc3ccccc23)Oc2cc(O)ccc21` [Aurone 3d, (2Z)-6-Hydroxy-2-(isoquinolin-1-ylmethylene)-1-benzofuran-3(2H)-one], the melting point was > 220 °C.

The molecule `O=C1/C(=C/c2nccc3ccccc23)Oc2cc(O)ccc21` [Aurone 3d] yielded an inhibition at 1 µM in series [1] (1 μM, Table 1) of 2.7 ± 6.4%. For the same molecule, the inhibition at 10 µM in series [1] (10 μM, Table 1) stood at 79 ± 3.6%; in series [2] (setting [4]), 88 ± 5.5%.

As for `O=C1/C(=C/c2ccc3ccccc3n2)Oc2cc(O)ccc21` [Aurone 3e, (2Z)-6-Hydroxy-2-(quinolin-2-ylmethylene)-1-benzofuran-3(2H)-one], the melting point lay in the range of 249 to 251 °C.

With `O=C1/C(=C/c2ccc3ccccc3n2)Oc2cc(O)ccc21` [Aurone 3e], the inhibition at 1 µM in series [1] (1 μM, Table 1) turned out to be 7.7 ± 9.9%; in series [2] (setting [3]), 26 ± 8.6%. Besides, the inhibition at 10 µM in series [1] (10 μM, Table 1) was 96 ± 0.9%; in series [2] (setting [4]), 99 ± 0.2%.

In the case of `COc1ccc2nc(/C=C3\Oc4cc(O)ccc4C3=O)ccc2c1` [Aurone 3f, (2Z)-6-Hydroxy-2-[(6-methoxyquinolin-2-yl)methylene]-1-benzofuran-3(2H)-one], the melting point was 269 to 271 °C.

On to `COc1ccc2nc(/C=C3\Oc4cc(O)ccc4C3=O)ccc2c1` [Aurone 3f], for which the inhibition at 10 µM turned out to be 6.1 ± 13% in series [1] (10 μM, Table 1) and 8.4 ± 33% in series [2] (setting [4]).

The molecule `COc1cccc2ccc(/C=C3\Oc4cc(O)ccc4C3=O)nc12` [Aurone 3g, (2Z)-6-Hydroxy-2-[(8-methoxyquinolin-2-yl)methylene]-1-benzofuran-3(2H)-one] came in with a melting point of 250 to 252 °C.

Regarding `COc1cccc2ccc(/C=C3\Oc4cc(O)ccc4C3=O)nc12` [Aurone 3g], the inhibition at 1 µM in series [1] (1 μM, Table 1) was 20 ± 9.1%; in series [2] (setting [3]), 40 ± 8.4%. Also, the inhibition at 10 µM in series [1] (10 μM, Table 1) worked out at 91 ± 2.4%; in series [2] (setting [4]) it was 97 ± 0.8%.

On to `O=C1/C(=C/c2ccnc3ccccc23)Oc2cc(O)ccc21` [Aurone 3h, (2Z)-6-Hydroxy-2-(quinolin-4-ylmethylene)-1-benzofuran-3(2H)-one], for which the melting point fell in the range of 278 to 280 °C.

For the molecule `O=C1/C(=C/c2ccnc3ccccc23)Oc2cc(O)ccc21` [Aurone 3h], the inhibition at 10 µM was found to be 34 ± 11% in series [1] (10 μM, Table 1) and 63 ± 7.2% in series [2] (setting [4]). In series [2] (setting [3]), this molecule returned an inhibition at 1 µM of 16 ± 3.5%.

`O=C1/C(=C/c2c[nH]c3ccccc23)Oc2cc(O)ccc21` [Aurone 3i, (2Z)-6-Hydroxy-2-(1H-indol-3-ylmethylene)-1-benzofuran-3(2H)-one] yielded a melting point of 280 to 282 °C.

As for `O=C1/C(=C/c2c[nH]c3ccccc23)Oc2cc(O)ccc21` [Aurone 3i], the inhibition at 10 µM in series [1] (10 μM, Table 1) was determined as 44 ± 8.6%; in series [2] (setting [4]) it was 20 ± 6.8%.

Molecule `Cn1cc(/C=C2\Oc3cc(O)ccc3C2=O)c2ccccc21` [Aurone 3j, (2Z)-6-Hydroxy-2-[(1-methyl-1H-indol-3-yl)methylene]-1-benzofuran-3(2H)-one] gave a melting point of 272 to 274 °C.

On to `Cn1cc(/C=C2\Oc3cc(O)ccc3C2=O)c2ccccc21` [Aurone 3j], for which the inhibition at 10 µM in series [1] (10 μM, Table 1) is 54 ± 15%; in series [2] (setting [4]), 41 ± 25%.

Regarding `COc1ccc2c(c1)c(/C=C1\Oc3cc(O)ccc3C1=O)cn2C` [Aurone 3k], the inhibition at 1 µM is 13 ± 2.4% in series [1] (1 μM, Table 1) and 17 ± 5.5% in series [2] (setting [3]). The inhibition at 10 µM in series [1] (10 μM, Table 1) was determined as 63 ± 0.7%; in series [2] (setting [4]) it was 35 ± 28%.

Consider `CCn1cc(/C=C2\Oc3cc(O)ccc3C2=O)c2cc(OC)ccc21` [Aurone 3l], for which the inhibition at 1 µM was 4.5 ± 7.3% in series [1] (1 μM, Table 1) and 13 ± 9.5% in series [2] (setting [3]). Moreover, the inhibition at 10 µM in series [1] (10 μM, Table 1) was 83 ± 1.2%; in series [2] (setting [4]), 69 ± 16%.

For `CCn1cc(/C=C2\Oc3cc(OCC#N)ccc3C2=O)c2cc(O)ccc21` [Aurone 4b], the “Inhibition of LS174T Cells 1 μM” value in series [1] (1 μM, Table 2) was determined as 26 ± 15%. In addition, the “Inhibition of LS174T Cells 10 μM” value in series [1] (10 μM, Table 2) stood at 83 ± 4.8%. In series [2] (300 nM, Table 2), the “Inhibition of PC-3 Cells 300 nM” value is reported as 24 ± 11%. Moreover, the “Inhibition of PC-3 Cells 1 μM” value in series [2] (1 μM, Table 2) is listed as 96 ± 2%. Also, the “Inhibition of PC-3 Cells 10 μM” value in series [2] (10 μM, Table 2) worked out at 96 ± 1.6%.

Consider `Cn1cc(/C=C2\Oc3cc(OCc4ccccc4F)ccc3C2=O)c2ccccc21` [Aurone 4d], for which the inhibition at 10 µM in series [1] (10 μM, Table 2) turned out to be 7.1 ± 17%; in series [2] (setting [5]), 0%.

For the molecule `Cn1cc(/C=C2\Oc3cc(OCc4ccccc4Cl)ccc3C2=O)c2ccccc21` [Aurone 4e], the inhibition at 10 µM is 0% in series [1] (10 μM, Table 2) and 20 ± 6.6% in series [2] (setting [5]).

Turning to `Cn1cc(/C=C2\Oc3cc(OCc4c(F)cccc4F)ccc3C2=O)c2ccccc21` [Aurone 4f], the inhibition at 10 µM in series [1] (10 μM, Table 2) was 0.5 ± 1.7%; in series [2] (setting [5]), 82 ± 4.3%.

As for `Cn1cc(/C=C2\Oc3cc(OCc4c(F)cccc4Cl)ccc3C2=O)c2ccccc21` [Aurone 4h], the inhibition at 10 µM in series [1] (10 μM, Table 2) came out at 38 ± 2%; in series [2] (setting [5]), 31 ± 40%. This molecule also had an inhibition at 1 µM in series [2] (setting [6]) of 0%.

Turning to `COc1ccc2c(c1)c(/C=C1\Oc3cc(OCc4c(F)cccc4Cl)ccc3C1=O)cn2C` [Aurone 4k], the inhibition at 10 µM in series [1] (10 μM, Table 2) was determined as 53 ± 8.9%; in series [2] (setting [5]), 57 ± 18%.

Turning to `CCn1cc(/C=C2\Oc3cc(OCc4ccccc4F)ccc3C2=O)c2cc(OC)ccc21` [Aurone 4n], the inhibition at 1 µM in series [1] (1 μM, Table 2) came to 0%; in series [2] (setting [6]), 28 ± 15%. Moreover, the inhibition at 10 µM in series [1] (10 μM, Table 2) worked out at 28 ± 11%; in series [2] (setting [5]) it was 52 ± 23%.

Consider `CCn1cc(/C=C2\Oc3cc(OCc4c(Cl)cccc4Cl)ccc3C2=O)c2cc(OC)ccc21` [Aurone 4o], for which the values for the inhibition at 0.3 µM in series [1] (Table 2) and in series [2] (setting [7]) were 3.3 ± 24% and 3.9 ± 11%, respectively. For the same molecule, the inhibition at 1 µM amounted to 7.3 ± 18% in series [1] (1 μM, Table 2) and 67 ± 5.8% in series [2] (setting [6]). Further, the inhibition at 10 µM is 94 ± 1.7% in series [1] (10 μM, Table 2) and 96 ± 1.1% in series [2] (setting [5]).

As to `CCn1cc(/C=C2\Oc3cc(OCc4c(F)cccc4Cl)ccc3C2=O)c2ccccc21` [Aurone 4p], the inhibition at 1 µM turned out to be 5.1 ± 19% in series [1] (1 μM, Table 2) and 91 ± 2.2% in series [2] (setting [6]). The inhibition at 10 µM is 93 ± 3.2% in series [1] (10 μM, Table 2) and 95 ± 4.4% in series [2] (setting [5]). This molecule registered an inhibition at 0.3 µM in series [2] (setting [7]) of 44 ± 5.6%.

Regarding `CCn1cc(/C=C2\Oc3cc(OCc4c(Cl)cccc4Cl)ccc3C2=O)c2ccccc21` [Aurone 4q], the inhibition at 0.3 µM in series [1] (Table 2) turned out to be 0%; in series [2] (setting [7]) it was 75 ± 7.7%. Further, the inhibition at 1 µM in series [1] (1 μM, Table 2) was 93 ± 2.5%; in series [2] (setting [6]) it was 98 ± 1%. Also, the inhibition at 10 µM was found to be 96% in series [1] (10 μM, Table 2) and 97 ± 0.6% in series [2] (setting [5]). The same molecule came in with an inhibition at 0.1 µM in series [2] (Homo sapiens, PC-3, 100 nM, Table 2) of 17 ± 6.8%.
